How the values were obtained:
[1] = Serum neurosteroid and steroid levels (GC/MS, RIA) at baseline and post-treatment; same trial; details: for Serum Androstenedione level / Serum Cortisol level / Serum DHEA level / Serum DHEAS level / Serum PGS (pregnenolone sulfate) level / Serum Total testosterone level / Serum Estradiol level / Serum ALLO (allopregnanolone) level / Serum Free testosterone level / Serum PG (pregnenolone) level / Serum Progesterone level: mean ± SD; for Serum Estradiol level: n = 7; for Serum ALLO (allopregnanolone) level / Serum Free testosterone level / Serum PG (pregnenolone) level / Serum Progesterone level: n = 8; for Serum testosterone, free testosterone, cortisol, DHEA, estradiol, or androstenedione levels: after 8 weeks of pregnenolone vs baseline
Experimental: Study drug was dispensed every 2 weeks at each study visit at fixed escalating doses as follows: Visit 1: Two-week single-blind placebo lead-in phase, one placebo tablet twice each day (all pts), Visit 2: Randomization to PREG 50 mg twice each day (100 mg/day total) or placebo for 2 wks, Visit 3: PREG 150 mg twice each day (300 mg/day total) or placebo for 2 weeks, Visit 4: PREG 250 mg twice each day (500 mg/day total) or placebo for 2 weeks, Visit 5: PREG 250 mg twice each day (500 mg/day total) or placebo continued for 2 weeks. Patients thus received PREG 500 mg per day in divided doses during the last 4 weeks of the study. Patients also received the Hillside Adverse Events Scale at Visits 2-6, and during staggered telephone check-in calls every two weeks, beginning one week into the single-blind placebo lead-in phase.
Neurosteroid Analyses. […] One mL of serum was extracted three times in ethyl acetate prior to high performance liquid chromatography (HPLC) purification utilizing tetrahydrofuran, ethanol, and hexane in the mobile phase. All samples were injected in duplicate. […] All other serum steroid levels were determined utilizing commercially available radioimmunoassay (RIA) kits according to manufacturer directions (progesterone, cortisol, testosterone, free testosterone, and DHEAS: Diagnostic System Laboratories, Webster, Tex.). DHEA serum levels were determined utilizing a kit from ICN Pharmaceuticals (Costa Mesa, Calif.).
Statistical Analysis. Primary endpoints were changes from baseline at Visit 2 following a two-week placebo lead-in period (all patients) to final assessment at Visit 6 in cognitive symptoms (as assessed by BAGS and MATRICS composite scores) and negative symptoms (as assessed by SANS total scores). […] Student's t-tests were conducted on the change scores between treatment groups in this proof-of-concept study (two-tailed alpha p=0.05 for each statistical test).

humans = details: cited from earlier work
[2] = after 8 weeks of pregnenolone, listed as Pregnenolone
[3] = after 8 weeks of pregnenolone, listed as pregnenolone

SMILES: CC(=O)[C@H]1CC[C@H]2[C@@H]3CC=C4C[C@@H](O)CC[C@]4(C)[C@H]3CC[C@]12C [PG, pregnenolone]
- Serum Androstenedione level ([1]; Week 0 (baseline)): 2.93 ± 1.30 ng/mL
- Serum Cortisol level ([1]; Week 0 (baseline)): 8.08 ± 2.80 μg/100 ml
- Serum DHEA level ([1]; Week 0 (baseline)): 7.85 ± 5.94 ng/mL
- Serum DHEAS level ([1]; Week 0 (baseline)): 124.72 ± 86.52 μg/100 ml
- Serum PGS (pregnenolone sulfate) level ([1]; Week 0 (baseline)): 33.4 ± 18.3 ng/mL
- Serum Total testosterone level ([1]; Week 0 (baseline)): 302.83 ± 158.53 ng/100 ml
- Serum Estradiol level ([1]; Week 0 (baseline)): 24.64 ± 6.21 pg/mL
- Serum ALLO (allopregnanolone) level ([1]; Week 0 (baseline)): 110.7 ± 78.9 pg/mL
- Serum Free testosterone level ([1]; Week 0 (baseline)): 7.96 ± 1.07 pg/mL
- Serum PG (pregnenolone) level ([1]; Week 0 (baseline)): 499.9 ± 313.6 pg/mL
- Serum Progesterone level ([1]; Week 0 (baseline)): 0.38 ± 0.15 ng/mL
- Serum Androstenedione level ([1]; Week 8): 3.01 ± 4.66 ng/mL
- Serum Cortisol level ([1]; Week 8): 7.96 ± 3.85 μg/100 ml
- Serum DHEA level ([1]; Week 8): 6.33 ± 3.26 ng/mL
- Serum DHEAS level ([1]; Week 8): 144.87 ± 97.30 μg/100 ml
- Serum PGS (pregnenolone sulfate) level ([1]; Week 8): 94.4 ± 14.3 ng/mL
- Serum Total testosterone level ([1]; Week 8): 303.08 ± 156.05 ng/100 ml
- Serum Estradiol level ([1]; Week 8): 25.42 ± 4.73 pg/mL
- Serum ALLO (allopregnanolone) level ([1]; Week 8): 823.1 ± 528.9 pg/mL
- Serum Free testosterone level ([1]; Week 8): 7.31 ± 2.04 pg/mL
- Serum PG (pregnenolone) level ([1]; Week 8): 2096.0 ± 999.4 pg/mL
- Serum Progesterone level ([1]; Week 8, listed as Pregnenolone): 2.17 ± 0.64 ng/mL
- Serum Progesterone level ([1]; Week 8, listed as pregnenolone): 2.17 ng/mL
- Increase in serum DHEAS levels over baseline ([1]; after 8 weeks of pregnenolone): approximately 16%
- Increase in serum PGS levels over baseline ([1]; after 8 weeks of pregnenolone): tripled
- Increase in serum progesterone over baseline ([1]; after 8 weeks of pregnenolone): over four-fold
- Serum testosterone, free testosterone, cortisol, DHEA, estradiol, or androstenedione levels ([1]; listed as Pregnenolone): did not result in downstream elevations
- Serum testosterone, free testosterone, cortisol, DHEA, estradiol, or androstenedione levels ([1]; listed as pregnenolone): did not increase
- Elevation in serum levels of PG over baseline [1, 2]: approximately four-fold elevations
- Increase in serum ALLO over baseline [1, 2]: five-fold elevations
- Elevation in serum levels of PG over baseline [1, 3]: approximate four-fold increase
- Increase in serum ALLO over baseline [1, 3]: five-fold
- Tolerability in healthy volunteers (humans; 15-30 mg/day, no significant side effects compared to placebo, Meieran et al., 2004): generally well-tolerated
- Safety and tolerability in humans (humans; 25-500 mg/day, studies of the 1940s and 1950s): safe and well-tolerated
